Data reported in patent US20120029187A1, “HALOALKYLSULFONANILIDE DERIVATIVE” (Nissan Chemical Industries, Ltd., priority 2009, published 2012).

Legend:
Assay type in all cases: in vivo
beadstraw = assay: Test Example 4: herbicidal effect in foliage treatment; conditions: dose 3.2 g/a, three weeks after application
Text: (§1) Test on the Herbicidal Effect in Foliage Treatment
(§2) Sterilized diluvial soil was put in plastic boxes with a length of 21 cm, a width of 13 cm and a depth of 7 cm, and seeds of barnyardgrass, large crabgrass, giant foxtail, wild oat, blackgrass, velvetleaf, common ragweed, redroot pigweed, common lambsquater, posumbu knotweed, common chickweed, corn, soybean, rice, wheat and sugar beet were sown in spots and covered with an about 1.5 cm-thick soil layer. The boxes were placed in a greenhouse at 25 to 30° C. to grow the plants. After 14 days, emulsifiable concentrates containing compounds of the present invention formulated in accordance with Formulation Example 2 were uniformly applied to the foliage at predetermined doses through a small sprayer after diluted with water. Three weeks after the application, the herbicidal effects against various plants were determined on the same evaluation scale as in Test Example 1.
(§3) A: barnyardgrass, B: bulrush, C: ducksalad, D: large crabgrass, E: giant foxtail, F: wild oat, G: water foxtail, H: Italian ryegrass, I: velvetleaf, J: common ragweed, K: redroot pigweed, L: common lambsquater, M: posumbu knotweed, N: common chickweed, O: beadstraw, a: transplanted rice, b: corn, c: soybean, d: direct-seeded rice, e: wheat, f: sugar beet.
(§4) The doses (g/a) represents the amounts in g per 1 are (a) applied after adjustment of concentration adjustment.

common lambsquater [1] = assay: as above; conditions: dose 3.2 g/a, three weeks after application
Text: as §1, §2, §3, §4

Italian ryegrass [2] = assay: as above; conditions: dose 3.2 g/a, three weeks after application
Text: as §1, §2, §3, §4

barnyardgrass [3] = assay: as above; conditions: dose 3.2 g/a, three weeks after application
Text: as §1, §2, §3, §4

common chickweed [4] = assay: as above; conditions: dose 3.2 g/a, three weeks after application
Text: as §1, §2, §3, §4

redroot pigweed [5] = assay: as above; conditions: dose 3.2 g/a, three weeks after application
Text: as §1, §2, §3, §4

posumbu knotweed = assay: as above; conditions: dose 3.2 g/a, three weeks after application
Text: as §1, §2, §3, §4

common ragweed [6] = assay: as above; conditions: dose 3.2 g/a, three weeks after application
Text: as §1, §2, §3, §4

water foxtail [7] = assay: as above; conditions: dose 3.2 g/a, three weeks after application
Text: as §1, §2, §3, §4

large crabgrass [8] = assay: as above; conditions: dose 3.2 g/a, three weeks after application
Text: as §1, §2, §3, §4

giant foxtail [9] = assay: as above; conditions: dose 3.2 g/a, three weeks after application
Text: as §1, §2, §3, §4

velvetleaf [10] = assay: as above; conditions: dose 3.2 g/a, three weeks after application
Text: as §1, §2, §3, §4

ducksalad [11] = assay: Test Example 2: herbicidal effects during the vegetation period under submerged conditions; conditions: treatment during the vegetation period under submerged conditions; dose 2.52 g/a
Procedure: (§5) Test on the Herbicidal Effects on Weeds During the Vegetation Period Under Submerged Conditions
(§6) Alluvial soil was put in 1/30000-are styrol cups and admixed with water so that it was submerged at a depth of 4 cm. In each cup, seeds of barnyardgrass, bulrush and ducksalad were sown together, and the cups were placed in a greenhouse at 25 to 30° C. to grow the plants. When the barnyardgrass, bulrush and ducksalad reached the 1- or 2-leaf stage, emulsifiable concentrates containing compounds of the present invention formulated in accordance with Formulation Example 2 were applied to the water surfaces at predetermined doses after diluted with water. Three weeks after the application, the herbicidal effects against various plants were determined on the same evaluation scale as in Test Example 1.
as §3, §4

bulrush [12] = assay: as above; conditions: treatment during the vegetation period under submerged conditions; dose 2.52 g/a
Procedure: as §5, §6, §3, §4

barnyardgrass [13] = assay: as above; conditions: treatment during the vegetation period under submerged conditions; dose 2.52 g/a
Procedure: as §5, §6, §3, §4

ducksalad [14] = assay: Test Example 1: herbicidal effects in preemergence treatment under submerged conditions; conditions: dose 2.52 g/a
Text: (§7) Test on the Herbicidal Effects in Preemergence Treatment on Weeds Under Submerged Conditions
(§8) Alluvial soil was put in 1/30000-are styrol cups and admixed with water so that it was submerged at a depth of 4 cm. In each cup, seeds of barnyardgrass, bulrush and ducksalad were sown together, and rice seedlings at the 2.5-leaf stage were transplanted. On the same day as the seeding, emulsifiable concentrates containing compounds of the present invention formulated in accordance with Formulation Example 2 were applied to the water surfaces at predetermined doses after diluted with water. The cups were placed in a greenhouse at 25 to 30° C. to grow the plants. Three weeks after the application, the herbicidal effects against various plants were determined on the following evaluation scale.
(§9) 5 mortality of 90% or above (nearly complete death)
(§10) 4 mortality of at least 70% and less than 90%
(§11) 3 mortality of at least 40% and less than 70%
(§12) 2 mortality of at least 20% and less than 40%
(§13) 1 mortality of at least 5% and less than 20%
(§14) 0 mortality of less than 5% (almost ineffective)
as §3, §4

bulrush [15] = assay: as above; conditions: dose 2.52 g/a
Text: as §7, §8, §9, §10, §11, §12, §13, §14, §3, §4

barnyardgrass [16] = assay: as above; conditions: dose 2.52 g/a
Text: as §7, §8, §9, §10, §11, §12, §13, §14, §3, §4

common lambsquater [17] = assay: Test Example 3: herbicidal effects in soil treatment; conditions: dose 3.2 g/a
Text: (§15) Test on the Herbicidal Effects in Soil Treatment
as §2, with “chickweed” for “chickweed,”, “Emulsifiable” for “The boxes were placed in a greenhouse at 25 to 30° C. to grow the plants. After 14 days, emulsifiable”, “soil surfaces” for “foliage”, “dilute” for “diluted”
as §3, §4

Italian ryegrass [18] = assay: as above; conditions: dose 3.2 g/a
Text: as §15
as §2, with “chickweed” for “chickweed,”, “Emulsifiable” for “The boxes were placed in a greenhouse at 25 to 30° C. to grow the plants. After 14 days, emulsifiable”, “soil surfaces” for “foliage”, “dilute” for “diluted”
as §3, §4

barnyardgrass [19] = assay: as above; conditions: dose 3.2 g/a
Text: as §15
as §2, with “chickweed” for “chickweed,”, “Emulsifiable” for “The boxes were placed in a greenhouse at 25 to 30° C. to grow the plants. After 14 days, emulsifiable”, “soil surfaces” for “foliage”, “dilute” for “diluted”
as §3, §4

common chickweed [20] = assay: as above; conditions: dose 3.2 g/a
Text: as §15
as §2, with “chickweed” for “chickweed,”, “Emulsifiable” for “The boxes were placed in a greenhouse at 25 to 30° C. to grow the plants. After 14 days, emulsifiable”, “soil surfaces” for “foliage”, “dilute” for “diluted”
as §3, §4

redroot pigweed [21] = assay: as above; conditions: dose 3.2 g/a
Text: as §15
as §2, with “chickweed” for “chickweed,”, “Emulsifiable” for “The boxes were placed in a greenhouse at 25 to 30° C. to grow the plants. After 14 days, emulsifiable”, “soil surfaces” for “foliage”, “dilute” for “diluted”
as §3, §4

common ragweed [22] = assay: as above; conditions: dose 3.2 g/a
Text: as §15
as §2, with “chickweed” for “chickweed,”, “Emulsifiable” for “The boxes were placed in a greenhouse at 25 to 30° C. to grow the plants. After 14 days, emulsifiable”, “soil surfaces” for “foliage”, “dilute” for “diluted”
as §3, §4

water foxtail [23] = assay: as above; conditions: dose 3.2 g/a
Text: as §15
as §2, with “chickweed” for “chickweed,”, “Emulsifiable” for “The boxes were placed in a greenhouse at 25 to 30° C. to grow the plants. After 14 days, emulsifiable”, “soil surfaces” for “foliage”, “dilute” for “diluted”
as §3, §4

large crabgrass [24] = assay: as above; conditions: dose 3.2 g/a
Text: as §15
as §2, with “chickweed” for “chickweed,”, “Emulsifiable” for “The boxes were placed in a greenhouse at 25 to 30° C. to grow the plants. After 14 days, emulsifiable”, “soil surfaces” for “foliage”, “dilute” for “diluted”
as §3, §4

giant foxtail [25] = assay: as above; conditions: dose 3.2 g/a
Text: as §15
as §2, with “chickweed” for “chickweed,”, “Emulsifiable” for “The boxes were placed in a greenhouse at 25 to 30° C. to grow the plants. After 14 days, emulsifiable”, “soil surfaces” for “foliage”, “dilute” for “diluted”
as §3, §4

velvetleaf [26] = assay: as above; conditions: dose 3.2 g/a
Text: as §15
as §2, with “chickweed” for “chickweed,”, “Emulsifiable” for “The boxes were placed in a greenhouse at 25 to 30° C. to grow the plants. After 14 days, emulsifiable”, “soil surfaces” for “foliage”, “dilute” for “diluted”
as §3, §4

transplanted rice = assay: Test Example 1: preemergence treatment under submerged conditions, effect on crop; conditions: dose 2.52 g/a
Text: as §7, §8, §9, §10, §11, §12, §13, §14, §3, §4

How did the “O: beadstraw, herbicidal effect” value (beadstraw) turn out when `CCOC(=O)N(c1ccccc1CN1COC2(CCCC2)CC1=O)S(=O)(=O)C(F)(F)F` [II-66] was run?
The value was 0 (mortality of less than 5% (almost ineffective)).

What about the “L: common lambsquater, herbicidal effect” value (common lambsquater [1]) of the same compound?
Its value is 3 (mortality of at least 40% and less than 70%).

What about the “H: Italian ryegrass, herbicidal effect” value (Italian ryegrass [2]) of the same compound?
The value was 3 (mortality of at least 40% and less than 70%).

What about the “A: barnyardgrass, herbicidal effect” value (barnyardgrass [3]) of the same compound?
Its value is 5 (mortality of 90% or above (nearly complete death)).

What about the “N: common chickweed, herbicidal effect” value (common chickweed [4]) of the same compound?
Its value is 4 (mortality of at least 70% and less than 90%).

And the “K: redroot pigweed, herbicidal effect” value (redroot pigweed [5])?
The value was 0 (mortality of less than 5% (almost ineffective)).

And the “M: posumbu knotweed, herbicidal effect” value (posumbu knotweed)?
The value was 4 (mortality of at least 70% and less than 90%).

What about the “J: common ragweed, herbicidal effect” value (common ragweed [6]) of the same compound?
The value was 3 (mortality of at least 40% and less than 70%).

And the “G: water foxtail, herbicidal effect” value (water foxtail [7])?
Its value is 5 (mortality of 90% or above (nearly complete death)).

And the “D: large crabgrass, herbicidal effect” value (large crabgrass [8])?
The value was 3 (mortality of at least 40% and less than 70%).

What about the “E: giant foxtail, herbicidal effect” value (giant foxtail [9]) of the same compound?
Its value is 4 (mortality of at least 70% and less than 90%).

What about the “I: velvetleaf, herbicidal effect” value (velvetleaf [10]) of the same compound?
Its value is 3 (mortality of at least 40% and less than 70%).

What about the “C: ducksalad, herbicidal effect (evaluation scale 0-5)” value (ducksalad [11]) of the same compound?
The value was 5 (mortality of 90% or above (nearly complete death)).

And the “B: bulrush, herbicidal effect (evaluation scale 0-5)” value (bulrush [12])?
The value was 5 (mortality of 90% or above (nearly complete death)).

What about the “A: barnyardgrass, herbicidal effect (evaluation scale 0-5)” value (barnyardgrass [13]) of the same compound?
Its value is 5 (mortality of 90% or above (nearly complete death)).

What about the “C: ducksalad, herbicidal effect (evaluation scale 0-5)” value (ducksalad [14]) of the same compound?
The value was 5 (mortality of 90% or above (nearly complete death)).

What about the “B: bulrush, herbicidal effect (evaluation scale 0-5)” value (bulrush [15]) of the same compound?
Its value is 5 (mortality of 90% or above (nearly complete death)).

And the “A: barnyardgrass, herbicidal effect (evaluation scale 0-5)” value (barnyardgrass [16])?
Its value is 5 (mortality of 90% or above (nearly complete death)).

What about the “L: common lambsquater, herbicidal effect (evaluation scale 0-5)” value (common lambsquater [17]) of the same compound?
Its value is 0 (mortality of less than 5% (almost ineffective)).

And the “H: Italian ryegrass, herbicidal effect (evaluation scale 0-5)” value (Italian ryegrass [18])?
The value was 5 (mortality of 90% or above (nearly complete death)).

What about the “A: barnyardgrass, herbicidal effect (evaluation scale 0-5)” value (barnyardgrass [19]) of the same compound?
Its value is 5 (mortality of 90% or above (nearly complete death)).

What about the “N: common chickweed, herbicidal effect (evaluation scale 0-5)” value (common chickweed [20]) of the same compound?
The value was 5 (mortality of 90% or above (nearly complete death)).

What about the “K: redroot pigweed, herbicidal effect (evaluation scale 0-5)” value (redroot pigweed [21]) of the same compound?
Its value is 2 (mortality of at least 20% and less than 40%).

And the “J: common ragweed, herbicidal effect (evaluation scale 0-5)” value (common ragweed [22])?
Its value is 3 (mortality of at least 40% and less than 70%).

And the “G: water foxtail, herbicidal effect (evaluation scale 0-5)” value (water foxtail [23])?
The value was 5 (mortality of 90% or above (nearly complete death)).

What about the “D: large crabgrass, herbicidal effect (evaluation scale 0-5)” value (large crabgrass [24]) of the same compound?
The value was 5 (mortality of 90% or above (nearly complete death)).

What about the “E: giant foxtail, herbicidal effect (evaluation scale 0-5)” value (giant foxtail [25]) of the same compound?
Its value is 5 (mortality of 90% or above (nearly complete death)).

And the “I: velvetleaf, herbicidal effect (evaluation scale 0-5)” value (velvetleaf [26])?
The value was 4 (mortality of at least 70% and less than 90%).

What about the “a: transplanted rice, effect on crop (evaluation scale 0-5)” value (transplanted rice) of the same compound?
Its value is 0 (mortality of less than 5% (almost ineffective)).
